Here are results for one molecule from patent publication US20250034212A1, “PEPTIDE” (PEPTIDREAM INC., priority 2021, published 2025).

Starred links: 1 amine or outer side, 2 acyl side, 3 side chain; linkers in the order of their positions; H or OH if unused. Positions of bridges follow the written chain, without caps; N, C: chain ends. Non-standard residues stand in square brackets, D forms with d. Residues, ends and D or L forms follow the SMILES beside them. Groups on a side chain read outwards from the residue. *: point of attachment. Piperazinyl(4-CH2COOH) = O=C(O)CN1CCN(*)CC1; 1Nal = N[C@@H](Cc1cccc2ccccc12)C(=O)O; Gly(NCH2CH2Ph) = O=C(O)CNCCc1ccccc1; 4Pal = N[C@@H](Cc1ccncc1)C(=O)O; CO = O=C([*:1])[*:2]

Test [1] addresses T1, recombinant human TGF-β2 (Homo sapiens, UniProt P61812).
T1 construct: purchased R&D systems
T1 sequence (P61812 303-414 limits assumed): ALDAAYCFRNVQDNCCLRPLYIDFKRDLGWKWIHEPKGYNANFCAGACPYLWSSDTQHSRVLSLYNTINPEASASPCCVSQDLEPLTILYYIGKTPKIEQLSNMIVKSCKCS
Kind of test: SBE reporter assay in SBE reporter-HEK293 cells, TGF-β2 stimulation. It is filed as cell-based. To be noted: FIG. 1. How it is done: In addition, the selectivity of each peptide for TGF-β isoforms (TGF-β1 and β2) is checked. For this purpose, the inhibitory activity against TGF-β1 and TGF-β2 was evaluated using the peptide consisting of the amino acid sequence set forth in SEQ ID NO: 13 synthesized in Example 2.
SBE reporter-HEK293 cells were cultured in E-MEM (Wako) containing 10% FBS (Sigma). The cells were detached using Accutase (Innovative Cell Technologies), suspended in E-MEM containing 0.5% FBS, seeded onto a 96-well plate(s) at a concentration of 45,000 cells per well, and cultured overnight. The next day, the peptide was added and allowed to stand for 20 min, and recombinant human TGF-β1 (R&D systems) or recombinant human TGF-β2 (R&D systems) was then added at 0.13 nM and cultured for 18 hours.
Thereafter, luciferase assay ONE-Glo reagent was added to each well and the plate was shaken for 5 min. A SpectraMax Paradigm multimode microplate reader (Molecular Devices) was then used for signal detection. The obtained signals were analyzed by GraphPad Prism. The inhibitory activity of the peptide was calculated while the maximum signal induced by TGF-β was set to 0% inhibition and no stimulation was set to 100% inhibition.

Test [2] concerns the target T2, recombinant human TGF-β1 (Homo sapiens, UniProt P01137).
T2 construct: purchased R&D systems
Kind of test: SBE reporter assay in SBE reporter-HEK293 cells, TGF-β1 stimulation. In kind it is cell-based. The essentials: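 SBE luciferase reporter HEK293 cells in 0.5% FBS medium, preincubated 20 min with peptide, then stimulated 18 h with 0.13 nM recombinant human TGF-β1. Luminescence read; inhibition scaled with maximal TGF-β signal as 0% and unstimulated as 100%.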

For test [3], the target named is T2, recombinant human TGF-β1. Kind of test: SPR intermolecular interaction test, TGF-β1 immobilized on CM3 sensor chip (Biacore T200). In kind it is binding. To be noted: Single Cycle Kinetics, human TGF-β1.

T2 sequence (P01137 279-390 limits assumed): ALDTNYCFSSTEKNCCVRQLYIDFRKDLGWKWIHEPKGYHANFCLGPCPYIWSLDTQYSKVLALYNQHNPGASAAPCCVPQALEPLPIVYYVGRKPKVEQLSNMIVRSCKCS

On to `CC(C)[C@@H]1NC(=O)CN(CCc2ccccc2)C(=O)[C@H](CC(=O)O)NC(=O)[C@H](CC(=O)O)NC(=O)[C@H](Cc2ccncc2)NC(=O)[C@H](C(C)C)NC(=O)[C@H](CC(N)=O)NC(=O)[C@H](C(C)C)NC(=O)[C@H](C(C)C)NC(=O)[C@H](Cc2cccc3ccccc23)NC(=O)[C@H](Cc2ccccc2)NC(=O)CSC[C@@H](C(=O)NCC(N)=O)NC(=O)[C@H](CCCCNC(=O)N2CCN(CC(=O)O)CC2)NC(=O)[C@H](Cc2c[nH]cn2)NC(=O)[C@H](Cc2ccc(O)cc2)NC(=O)[C@H](Cc2cccc3ccccc23)NC1=O` [TGFb1_012] ({CH2CO}-F[1Nal]VVNV[4Pal]DD[Gly(NCH2CH2Ph)]V[1Nal]YHK([CO-Piperazinyl(4-CH2COOH)])CG-NH2; thioether N-16), for which the “inhibitory activity against TGF-β2 (in words)” value in test [1] is reported as “inhibits not only TGF-β1 but also TGF-β2”. Further, the “TGF-β1 antagonist / inhibitory activity (in words)” value in test [2] (SBE reporter assay, FIG. 1 and Tables 2 and 3) is on record as “inhibits not only TGF-β1 but also TGF-β2”. Also, the inhibition at 62 pM in test [2] (peptide 0.062 nM, TGF-β1 0.13 nM, 18 hours) was 4.18%. Besides, the inhibition at 75 pM in test [2] (peptide 0.075 nM, TGF-β1 0.13 nM, 18 hours) came to 10.1%. The inhibition at 0.000185 µM in test [2] (peptide 0.185 nM, TGF-β1 0.13 nM, 18 hours) was 19.8%. The inhibition at 0.00056 µM in test [2] (peptide 0.56 nM, TGF-β1 0.13 nM, 18 hours) was found to be 48.4%. For the same molecule, the inhibition at 0.00075 µM in test [2] (peptide 0.75 nM, TGF-β1 0.13 nM, 18 hours) amounted to 65.2%. Besides, the inhibition at 0.0017 µM in test [2] (peptide 1.7 nM, TGF-β1 0.13 nM, 18 hours) was found to be 80.9%. In addition, the inhibition at 0.005 µM in test [2] (peptide 5.0 nM, TGF-β1 0.13 nM, 18 hours) was found to be 94.4%. Moreover, the inhibition at 0.0075 µM in test [2] (peptide 7.5 nM, TGF-β1 0.13 nM, 18 hours) was 96%. The inhibition at 0.015 µM in test [2] (peptide 15.0 nM, TGF-β1 0.13 nM, 18 hours) amounted to 98.7%. Further, the inhibition at 0.075 µM in test [2] (peptide 75.0 nM, TGF-β1 0.13 nM, 18 hours) came out at 99.5%. Also, in test [3], the Kd was 0.86 nM.
